According to patent publication US5525626A (priority 1989, dated 1996):

What was measured:
Test in all cases: 3H-thymidine assay
Assay type in all cases: cell-based
Daudi leukemic cells = settings: Homo sapiens
K-562 leukemic cells = settings: Homo sapiens, K562
Method in brief: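 Antiproliferative activity against human K562 leukemia cells was measured by 3H-thymidine incorporation. Cells were seeded at 10^4 per well in 24-well plates and grown about 48 hours to half-confluence, then given medium containing the active substance. After two ice-cold PBS washes, macromolecular 3H was precipitated with 5% trichloroacetic acid for one hour at 4° C, dissolved in 0.3M NaOH and counted.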

[1] = test system: MCF-7 breast cancer cells; settings: Homo sapiens, MCF7
Method in brief: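 Antiproliferative activity against human MCF-7 breast cancer cells was measured by 3H-thymidine incorporation. Cells (10^4 per well) were seeded in 24-well plates, grown about 48 hours to half-confluence, then given medium containing the test substance. After two ice-cold PBS washes, high-molecular-weight 3H-radioactivity was precipitated with 5% trichloroacetic acid for one hour at 4° C, solubilized in 0.3M NaOH and counted; incorporation was compared with untreated cells.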

[2] = test system: Tp 242 MG glioblastoma cells; settings: Homo sapiens
[3] = test system: GV-1 prostate carcinoma cells
HCV cells = test system: HCV cells
[4] = test system: Tp 483 MG glioblastoma cells
A-375 melanoma cells = settings: Homo sapiens, A-375
CAKI-2 cells = settings: Homo sapiens, CAKI-2
Method in brief: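 Cells were seeded in 24-well plates at 10^4 cells per well and grown about 48 hours until half-confluent. The medium was then replaced with medium containing the test substance. After two washes in ice-cold PBS, acid-insoluble 3H label was precipitated with 5% trichloroacetic acid for one hour at 4° C. Label was dissolved in 0.3M NaOH and counted, and thymidine incorporation was compared with untreated cells.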

[5] = 1 μM/ml, read-out: 3H-thymidine tracer (%) of control
[6] = 2 μM/ml, read-out: 3H-thymidine tracer (%) of control
[7] = 4 μM/ml, read-out: 3H-thymidine tracer (%) of control
[8] = 8 μM/ml, read-out: 3H-thymidine tracer (%) of control
[9] = 16 μM/ml, read-out: 3H-thymidine tracer (%) of control
[10] = 25 μM/ml, read-out: 3H-thymidine tracer (%) of control
[11] = 50 μM/ml, read-out: 3H-thymidine tracer (%) of control
[12] = 100 μM/ml, read-out: 3H-thymidine tracer (%) of control
[13] = 250 μM/ml, read-out: 3H-thymidine tracer (%) of control
[14] = 500 μM/ml, read-out: 3H-thymidine tracer (%) of control
[15] = Table 4, read-out: active substance concentration at which 3H-thymidine insertion was 50% inhibited
[16] = Table 4, *: maximum usable dosage, no 50% inhibition, read-out: active substance concentration at which 3H-thymidine insertion was 50% inhibited
[17] = 1 μM/ml, read-out: 3H-thymidine insertion (%) of control
[18] = 2 μM/ml, read-out: 3H-thymidine insertion (%) of control
[19] = 4 μM/ml, read-out: 3H-thymidine insertion (%) of control
[20] = 8 μM/ml, read-out: 3H-thymidine insertion (%) of control
[21] = 16 μM/ml, read-out: 3H-thymidine insertion (%) of control
[22] = 25 μM/ml, read-out: 3H-thymidine insertion (%) of control
[23] = 50 μM/ml, read-out: 3H-thymidine insertion (%) of control
[24] = 100 μM/ml, read-out: 3H-thymidine insertion (%) of control
[25] = 250 μM/ml, read-out: 3H-thymidine insertion (%) of control
[26] = 500 μM/ml, read-out: 3H-thymidine insertion (%) of control

Work on `O=c1ccc2ccc(O)cc2o1` [7-OH-1,2-BP, 7-hydroxy-1,2-benzopyrone] yielded an activity at 1 µM (Daudi leukemic cells; [5]) of 98%, an activity at 2 µM (Daudi leukemic cells; [6]) of 89% and an activity at 4 µM (Daudi leukemic cells; [7]) of 82%. It also gave an activity at 8 µM (Daudi leukemic cells; [8]) of 76%, an activity at 16 µM (Daudi leukemic cells; [9]) of 63% and an activity at 25 µM (Daudi leukemic cells; [10]) of 54%. It also gave an activity at 50 µM (Daudi leukemic cells; [11]) of 49%, an activity at 100 µM (Daudi leukemic cells; [12]) of 38% and an activity at 250 µM (Daudi leukemic cells; [13]) of 35%. For the same molecule, the activity at 500 µM (Daudi leukemic cells; [14]) was 28%, the IC50 (Daudi leukemic cells; [15]) was 50 µM and the activity at 1 µM (K-562 leukemic cells; [5]) was 100%. The activity at 2 µM (K-562 leukemic cells; [6]) was 91%, the activity at 4 µM (K-562 leukemic cells; [7]) was 84% and the activity at 8 µM (K-562 leukemic cells; [8]) was 76%. For the same molecule, the activity at 16 µM (K-562 leukemic cells; [9]) was 67%, the activity at 25 µM (K-562 leukemic cells; [10]) was 53% and the activity at 50 µM (K-562 leukemic cells; [11]) was 47%. For the same molecule, the activity at 100 µM (K-562 leukemic cells; [12]) was 42%, the activity at 250 µM (K-562 leukemic cells; [13]) was 39% and the activity at 500 µM (K-562 leukemic cells; [14]) was 37%. For the same molecule, the IC50 (K-562 leukemic cells; [15]) was 50 µM, the activity at 1 µM [1, 5] was 98% and the activity at 2 µM [1, 6] was 94%. It also gave an activity at 4 µM [1, 7] of 88%, an activity at 8 µM [1, 8] of 82% and an activity at 16 µM [1, 9] of 75%. The activity at 25 µM [1, 10] was 69%, the activity at 50 µM [1, 11] was 62% and the activity at 100 µM [1, 12] was 51%. For the same molecule, the activity at 250 µM [1, 13] was 43%, the activity at 500 µM [1, 14] was 29% and the IC50 [1, 16] was 100 µM. It also gave an activity at 1 µM [2, 17] of 93%, an activity at 2 µM [2, 18] of 91% and an activity at 4 µM [2, 19] of 91%. For the same molecule, the activity at 8 µM [2, 20] was 84%, the activity at 16 µM [2, 21] was 73% and the activity at 25 µM [2, 22] was 55%. For the same molecule, the activity at 50 µM [2, 23] was 43%, the activity at 100 µM [2, 24] was 39% and the activity at 250 µM [2, 25] was 35%. The activity at 500 µM [2, 26] was 32%, the IC50 [2, 15] was 25 µM and the activity at 1 µM [3, 5] was 100%. It also gave an activity at 2 µM [3, 6] of 89%, an activity at 4 µM [3, 7] of 83% and an activity at 8 µM [3, 8] of 75%. For the same molecule, the activity at 16 µM [3, 9] was 69%, the activity at 25 µM [3, 10] was 63% and the activity at 50 µM [3, 11] was 51%. For the same molecule, the activity at 100 µM [3, 12] was 39%, the activity at 250 µM [3, 13] was 36% and the activity at 500 µM [3, 14] was 27%. The IC50 [3, 15] was 75 µM, the activity at 1 µM (HCV cells; [5]) was 98% and the activity at 2 µM (HCV cells; [6]) was 95%. For the same molecule, the activity at 4 µM (HCV cells; [7]) was 88%, the activity at 8 µM (HCV cells; [8]) was 82% and the activity at 16 µM (HCV cells; [9]) was 74%. For the same molecule, the activity at 25 µM (HCV cells; [10]) was 69%, the activity at 50 µM (HCV cells; [11]) was 63% and the activity at 250 µM (HCV cells; [13]) was 57%. The activity at 500 µM (HCV cells; [14]) was 50%, the IC50 (HCV cells; [16]) was 500 µM and the activity at 1 µM [4, 17] was 97%. The activity at 2 µM [4, 18] was 95%, the activity at 4 µM [4, 19] was 89% and the activity at 8 µM [4, 20] was 81%. It also gave an activity at 16 µM [4, 21] of 69%, an activity at 25 µM [4, 22] of 66% and an activity at 50 µM [4, 23] of 39%. The activity at 100 µM [4, 24] was 32%, the activity at 250 µM [4, 25] was 27% and the activity at 500 µM [4, 26] was 25%. For the same molecule, the IC50 [4, 15] was 25 µM, the activity at 1 µM (A-375 melanoma cells; [5]) was 100% and the activity at 2 µM (A-375 melanoma cells; [6]) was 92%. The activity at 4 µM (A-375 melanoma cells; [7]) was 86%, the activity at 8 µM (A-375 melanoma cells; [8]) was 81% and the activity at 16 µM (A-375 melanoma cells; [9]) was 72%. For the same molecule, the activity at 25 µM (A-375 melanoma cells; [10]) was 64%, the activity at 50 µM (A-375 melanoma cells; [11]) was 53% and the activity at 100 µM (A-375 melanoma cells; [12]) was 49%. It also gave an activity at 250 µM (A-375 melanoma cells; [13]) of 47%, an activity at 500 µM (A-375 melanoma cells; [14]) of 44% and an IC50 (A-375 melanoma cells; [16]) of 100 µM. For the same molecule, the activity at 1 µM (CAKI-2 cells; [5]) was 95%, the activity at 2 µM (CAKI-2 cells; [6]) was 92% and the activity at 4 µM (CAKI-2 cells; [7]) was 88%. For the same molecule, the activity at 8 µM (CAKI-2 cells; [8]) was 77%, the activity at 16 µM (CAKI-2 cells; [9]) was 71% and the activity at 25 µM (CAKI-2 cells; [10]) was 65%. The activity at 50 µM (CAKI-2 cells; [11]) was 54%, the activity at 100 µM (CAKI-2 cells; [12]) was 46% and the activity at 150 µM (CAKI-2 cells; 150 μM/ml, read-out: 3H-thymidine tracer (%) of control) was 39%. For the same molecule, the activity at 500 µM (CAKI-2 cells; [14]) was 35% and the IC50 (CAKI-2 cells; [16]) was 75 µM.
